Experiment [1] is filed under the species Homo sapiens. In words: In vitro inhibition of Serine protease chymotrypsin. Details: unit not given here.
Experiment [2] is filed under the species Homo sapiens. In words: Ratio of kobs/[l] for human leukocyte elastase and kobs/[l] for chymotrypsin.
Experiment [3] concerns the target T1, Neutrophil elastase (Homo sapiens) (UniProt P08246).
T1 sequence (whole entry): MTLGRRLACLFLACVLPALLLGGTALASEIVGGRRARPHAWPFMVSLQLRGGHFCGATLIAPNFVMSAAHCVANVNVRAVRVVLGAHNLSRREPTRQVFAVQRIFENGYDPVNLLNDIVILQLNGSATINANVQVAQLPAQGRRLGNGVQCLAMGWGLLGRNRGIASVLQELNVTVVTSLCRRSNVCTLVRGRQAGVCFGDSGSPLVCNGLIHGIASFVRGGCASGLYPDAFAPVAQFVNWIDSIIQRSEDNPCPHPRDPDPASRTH
The experiment is described as follows: Inhibition of human leukocyte elastase. Details: unit not given here.

`CCS(=O)(=O)ON1C(=O)c2ccc(N)cc2C1=O`: the k obs / 1 in the experiment listed under Homo sapiens [1] worked out at 13000; in experiment [3], 60000. Besides, the Ratio in the experiment filed under Homo sapiens [2] was determined as 4.6.

Regarding `CCS(=O)(=O)ON1C(=O)c2ccc(NC(=O)CCC(=O)OC)cc2C1=O`, the k obs / 1 was determined as 9600 in the experiment filed under Homo sapiens [1] and 25000 in experiment [3]. For the same compound, the Ratio in the experiment listed under Homo sapiens [2] was 2.6.

Take `CS(=O)(=O)ON1C(=O)c2ccc(NC(=O)CCc3ccccc3)cc2C1=O`: the k obs / 1 stood at 4800 in the experiment filed under Homo sapiens [1] and 9700 in experiment [3]. Further, the Ratio in the experiment filed under Homo sapiens [2] was determined as 2.

Regarding `COC(=O)CCCC(=O)Nc1ccc2c(c1)C(=O)N(OS(C)(=O)=O)C2=O`, the k obs / 1 in the experiment filed under Homo sapiens [1] was found to be 6600; in experiment [3] it was 57000. In addition, in the experiment listed under Homo sapiens [2], the Ratio amounted to 8.6.

Regarding `CCS(=O)(=O)ON1C(=O)c2ccc(NC(=O)C(=O)OC)cc2C1=O`, the k obs / 1 in the experiment filed under Homo sapiens [1] was 5300; in experiment [3] it was 56000. Moreover, in the experiment listed under Homo sapiens [2], the Ratio is 11.

As to `CS(=O)(=O)ON1C(=O)c2ccc(NC(=O)/C=C/c3ccccc3)cc2C1=O`, the k obs / 1 in the experiment filed under Homo sapiens [1] turned out to be 1600; in experiment [3], 20000. Further, in the experiment listed under Homo sapiens [2], the Ratio was found to be 13.

Consider `CS(=O)(=O)ON1C(=O)c2ccc(NC(=O)c3cccc4ccccc34)cc2C1=O`, for which the k obs / 1 in the experiment filed under Homo sapiens [1] stood at 3300; in experiment [3], 25000. In the experiment listed under Homo sapiens [2], the Ratio is 7.6.

For the compound `COC(=O)C(=O)Nc1ccc2c(c1)C(=O)N(OS(C)(=O)=O)C2=O`, the values for the k obs / 1 (in the experiment listed under Homo sapiens [1]; in experiment [3]) were 5400 and 30000, respectively. For the same compound, the Ratio in the experiment listed under Homo sapiens [2] came out at 5.6.

For `CCS(=O)(=O)ON1C(=O)c2ccc(NC(=O)CCCC(=O)OC)cc2C1=O`, the k obs / 1 in the experiment filed under Homo sapiens [1] is 14000; in experiment [3], 220000. In addition, the Ratio in the experiment filed under Homo sapiens [2] was 16.

For the compound `Cc1ccc(S(=O)(=O)N[C@@H](Cc2ccccc2)C(=O)Nc2ccc3c(c2)C(=O)N(OS(C)(=O)=O)C3=O)cc1`, the results for the k obs / 1 (in the experiment filed under Homo sapiens [1]; in experiment [3]) were 11000 and 160000, respectively. In addition, the Ratio in the experiment listed under Homo sapiens [2] came to 15.

Turning to `CS(=O)(=O)ON1C(=O)c2ccc(N)cc2C1=O`, the values for the k obs / 1 (in the experiment filed under Homo sapiens [1]; in experiment [3]) were 12000 and 110000, respectively. Moreover, in the experiment listed under Homo sapiens [2], the Ratio was 9.2.

With `CS(=O)(=O)ON1C(=O)c2ccc(NC(=O)c3ccccc3)cc2C1=O`, the k obs / 1 in the experiment listed under Homo sapiens [1] was determined as 3600; in experiment [3], 25000. The Ratio in the experiment listed under Homo sapiens [2] was found to be 6.9.

The record behind these values is ChEMBL document CHEMBL1133055, “6-Acylamino-2-[(alkylsulfonyl)oxy]-1H-isoindole-1,3-dione mechanism-based inhibitors of human leukocyte elastase” (Bioorg Med Chem Lett, 2000).
